Assay results published in publication PMC9611758, “Bioactive Platinum(IV) Complexes Incorporating Halogenated Phenylacetates” (Molecules, 2022).
Entries after “also recorded” stand apart in the source; their conditions may differ. Read-outs that look alike come from different tables or passages of the source.

Experiments:
BE2-C neuroblastoma [1] = test system: BE2-C neuroblastoma; design: method as in PMID 36142383; settings: MTT assay, 72 h; cited from earlier work
[2] = test system: ADDP-resistant ovarian variant; design: method as in PMID 36142383; settings: MTT assay, 72 h; cited from earlier work
HT29 colon [3] = test system: HT29 colon; design: method as in PMID 36142383; settings: MTT assay, 72 h; cited from earlier work
A431 skin [4] = test system: A431 skin; design: method as in PMID 36142383; settings: MTT assay, 72 h; cited from earlier work
MCF-7 breast [5] = test system: MCF-7 breast; design: method as in PMID 36142383; settings: MTT assay, 72 h; cited from earlier work
A2780 ovarian [6] = test system: A2780 ovarian; design: method as in PMID 36142383; settings: MTT assay, 72 h; cited from earlier work
Du145 prostate [7] = test system: Du145 prostate; design: method as in PMID 36142383; settings: MTT assay, 72 h; cited from earlier work
H460 lung [8] = test system: H460 lung; design: method as in PMID 36142383; settings: MTT assay, 72 h; cited from earlier work
U87 glioblastoma [9] = test system: U87 glioblastoma; design: method as in PMID 36142383; settings: MTT assay, 72 h; cited from earlier work
MIA pancreas [10] = test system: MIA pancreas; design: method as in PMID 36142383; settings: MTT assay, 72 h; cited from earlier work
SJ-G2 glioblastoma [11] = test system: SJ-G2 glioblastoma; design: method as in PMID 36142383; settings: MTT assay, 72 h; cited from earlier work
SJ-G2 glioblastoma [12] = experiment: MTT growth inhibition assay, SJ-G2; type: cell-based, human; settings: 72 h
BE2-C neuroblastoma [13] = experiment: MTT growth inhibition assay, BE2-C; type: cell-based, human; settings: 72 h
H460 lung [14] = experiment: MTT growth inhibition assay, H460; type: cell-based, human; settings: 72 h
U87 glioblastoma [15] = experiment: MTT growth inhibition assay, U87; type: cell-based, human; settings: 72 h
Du145 prostate [16] = experiment: MTT growth inhibition assay, Du145; type: cell-based, human; settings: MTT assay, 72 h
A2780 ovarian [17] = experiment: MTT growth inhibition assay, A2780; type: cell-based, human; settings: 72 h
[18] = Lipophilicity by HPLC (log kw); type: physicochemical; settings: linear fit
Description: For lipophilicity measurements, HPLC was utilised instead of the traditional shake-flask method, as described previously. Recent studies have also reported the efficiency of HPLC in measuring the lipophilicity of compounds [79, 80]. Each complex was eluted under several isocratic ratios. A standard curve was generated to calculate the log value of the capacity factor (log k) according to Equation (1). Following Equation (2), the percentage of organic solvent (CH3CN) in the mobile phase from each isocratic run was plotted against log kw (Figure S80). Log kw is the chromatographic lipophilicity index or measure of lipophilicity of the complex, so a higher value corresponds to greater lipophilicity. Because the selected axial ligands in this study contain F, Cl, Br, and I, it was only appropriate to determine the influence of the halogens on the overall lipophilicity of the platinum(IV) complexes. […] Conversely, the least lipophilic complex was the phen derivative containing 4-FPA, 3, with a log kw of 0.25. Furthermore, for the phen derivatives, the order of increasing lipophilicity was 3 > 1 > 5 > 7, which corresponds to the order of increasing size of the halogens, F > Cl > Br > I. This pattern was also observed with the 5,6-Me2phen derivatives (4 > 2 > 6 > 8), thereby confirming that the halogens increased the order of lipophilicity accordingly based on their size.
For lipophilicity measurements, analytical HPLC was utilised. Elution profiles were acquired on an Agilent (Melbourne, VIC, Australia) Technologies 1260 Infinity instrument equipped with a Phenomenex Onyx^TM Monolithic C18-reverse phase column (100 × 4.6 mm, 5 µm pore size) (Sydney, NSW, Australia). The mobile phase consisted of solvents, A (0.06% TFA in d.i.H2O) and B (0.06% TFA in CH3CN/d.i.H2O (90:10)). Potassium iodide was used as an external dead volume marker to determine the dead time of the column. Retention times (TR) were measured at varying isocratic ratios ranging from 30 to 36% of solvent B at 1 mL·min^−1 mL. An injection volume of 10 µL was utilised. Capacity factors were determined according to Equation (1):(1) k=(TR−T0)/T0 where k is the capacity factor, TR is the retention time of the analyte, and T0 represents the dead time. A minimum of four different mobile compositions were used for each complex to calculate k. A linear plot was generated of log k against the concentration of CH3CN in the mobile phase to determine the value of log kw expressed by Equation (2):(2) logk=Sφ+logkw where S is the slope, φ is the concentration of the CH3CN in the mobile phase, and log kw represents the capacity factor of the complex in 100% d.i.H2O. Extrapolation of this linear plot to the y-intercept indicates the log kw value.

HT29 colon cells = experiment: ROS detection assay (DCFH-DA); type: cell-based, human; settings: HT29 colon cells, treated at GI50 concentration (TBHP positive control 20 μM)
Description: Although ROS is required for cancer cell function and progression, it can induce programmed cell death or apoptosis. […] In this study, we report the ROS activity of the studied platinum(IV) complexes, 1–8, together with the individual axial ligands (4-CPA, 4-FPA, 4-BPA, and 4-IPA) in the human cancer cell line, HT29 colon (Figure 19, Table 8, and Figure S95). The ROS potential of their platinum(II) and platinum(IV) precursors in the same cell line is also presented for comparison purposes (Table 8). […] HT29 colon cells were stained by DCFH-DA and then treated with the complexes at each specific GI50 concentration. Upon ROS production, the DCFH-DA produced dichlorodihydrofluorescein, a fluorescent product. The measured fluorescence was, therefore, proportional to the produced ROS.
To investigate the presence of ROS in treated cells, a DCFDA/H2DCFDA-cellular ROS Assay Kit (Abcam, Cambridge, MA, USA) was used, as previously described. A total of 25,000 cells/mL of HT29 cells in DMEM were seeded in 96-well plates. Cells were washed with 1X kit buffer, and then stained with 25 μM 2′,7′-dichlorofluorescein diacetate (DCFH-DA) and incubated for 45 min. DCFH-DA was then removed, and cells were then re-washed with 1X kit buffer, after which phenol red free media was added. Cells were then treated with a GI50 drug concentration for each complex. The plates were directly scanned to measure fluorescence (relative fluorescence units (RFU)) at different time points using the Glo-Max®-Multimode microplate reader (Promega Corporation, Alexandra, VIC, Australia) at an excitation/emission of 485/535 nm. To generate the positive control (20 μM tert-butyl hydroperoxide (TBHP)), cells were washed with 1X kit buffer, and stained with DCFDA (25 μM) for 45 min; this was removed and TBHP was added in phenol red free media, and the resulting solution was scanned as described above.

[19] = test system: ADDP-resistant ovarian variant; experiment: MTT growth inhibition assay, ADDP; type: cell-based, human; settings: MTT assay, 72 h
MIA pancreas [20] = experiment: MTT growth inhibition assay, MIA; type: cell-based, human; settings: 72 h
[21] = test system: non-tumour derived MCF10A breast line; experiment: MTT growth inhibition assay, MCF10A; type: cell-based, human; settings: 72 h
HT29 colon [22] = experiment: MTT growth inhibition assay, HT29; type: cell-based, human; settings: MTT assay, 72 h
A431 skin [23] = experiment: MTT growth inhibition assay, A431; type: cell-based, human; settings: 72 h
[24] = Reduction experiments with AsA by 1H-NMR and 1D-195Pt-NMR; type: physicochemical; settings: D2O, 37 °C
Description: Platinum(IV) complexes are reduced to their platinum(II) precursors by intracellular biological reducing agents such as AsA or GSH in tumour cells. However, the precise mechanism by which reduction occurs is not fully understood. In this paper, reduction reaction experiments were undertaken on the synthesised platinum(IV) complexes, 1–8, with the aid of ^1H-NMR and 1D-^195Pt-NMR spectroscopy. The method used for the reduction reaction experiments was adapted from the literature without modifications. A total of 10 mM PBS (~7.4 pH) was selected as media, and AsA was used as the biological reducing agent to investigate the reduction property of 1–8. Prior to the reduction reaction experiments, a control was prepared where each metal complex was dissolved with PBS in D2O. 1D-^195Pt-NMR was measured within the regions of −2800 and 400 ppm (30 min per region), at 37 °C. This was undertaken to confirm that the PBS would not interfere with the reduction process of the metal complexes. […] The approximate time points for the studied complexes at which an estimated 50% reduction had occurred, in the presence of AsA, as represented by T50%, are summarised in Table 6.
The reduction properties of 1–8 were monitored using ^1H-NMR and 1D-^195Pt-NMR spectroscopy on a 400 MHz Bruker (Melbourne, VIC, Australia) Avance Spectrometer. A sequence of ^1H-NMR experiments was carried out for 1 h at 37 °C, followed by 1D-^195Pt-NMR within the regions of −2800 and 400 ppm. An amount of 10 mM PBS (~7.4 pH) was transferred to a vial and reduced to dryness through rotary evaporation. AsA (~1 mg) was combined with the metal complex (~5 mg) and transferred to the vial containing the dried PBS. A total of 600 µL of D2O was then added to the vial to dissolve the complex, AsA, and the PBS together.

MCF-7 breast [25] = experiment: MTT growth inhibition assay, MCF-7; type: cell-based, human
panel of cell lines = experiment: MTT growth inhibition assay, whole panel of cell lines; type: cell-based, human; settings: average over the cell lines tested, MTT assay, 72 h

In the case of `O=C1[O][Pt]2([NH][C@@H]3CCCC[C@H]3[NH]2)[O]C1=O` (relative stereo) [Oxaliplatin, trans-L-(1R,2R-diaminocyclohexane) oxalatoplatinum(II)], the GI50 (BE2-C neuroblastoma [1]) is listed as 900 ± 200 nM, the GI50 [2] is listed as 800 ± 100 nM and the GI50 (HT29 colon [3]) is listed as 900 ± 200 nM. The GI50 (A431 skin [4]) was 4100 ± 500 nM, the GI50 (MCF-7 breast [5]) was 500 ± 100 nM and the GI50 (A2780 ovarian [6]) was 160 ± 100 nM. For the same compound, the GI50 (Du145 prostate [7]) was 2900 ± 400 nM, the GI50 (H460 lung [8]) was 1600 ± 100 nM and the GI50 (U87 glioblastoma [9]) was 1800 ± 200 nM. The GI50 (MIA pancreas [10]) was 900 ± 200 nM and the GI50 (SJ-G2 glioblastoma [11]) was 3000 ± 1200 nM.
For `Cc1c(C)c2c3c4c1=CC=C[N]4[Pt+2]([OH])([O]C(=O)Cc1ccc(Cl)cc1)[N]3C=CC=2.N[C@H]1CCCC[C@@H]1N` [Complex 2, [Pt^IV(5,6-Me2phen)(SS-DACH)(4-CPA)(OH)]^2+], the GI50 (SJ-G2 glioblastoma [12]) was 100 ± 45 nM, the GI50 (BE2-C neuroblastoma [13]) was 110 ± 18 nM and the GI50 (H460 lung [14]) was 200 ± 170 nM. The GI50 (U87 glioblastoma [15]) was 79 ± 30 nM, the GI50 (Du145 prostate [16]) was 33 ± 21 nM and the GI50 (A2780 ovarian [17]) was 43 ± 10 nM. The “log kw (y-intercept of log k versus [CH3CN] % plot, Figure S80)” value [18] was 0.9477, the “ROS production 24 h” value (HT29 colon cells; 24 h) was 358 ± 21 RFU and the “ROS production 48 h” value (HT29 colon cells; 48 h) was 508 ± 16 RFU. The “ROS production 72 h” value (HT29 colon cells; 72 h) was 564 ± 10 RFU, the GI50 [19] was 26 ± 4.5 nM and the GI50 (MIA pancreas [20]) was 28 ± 5.5 nM. For the same compound, the GI50 [21] was 35 ± 7.8 nM, the GI50 (HT29 colon [22]) was 22 ± 9.2 nM and the GI50 (A431 skin [23]) was 41 ± 8 nM. For the same compound, the “T50% (approximate time at which 50% reduction occurs)” value ([24]; 10 mM PBS (~7.4 pH), 1H-NMR) was 20 to 25 min, the “time at which reduction starts” value ([24]; PBS, 1H-NMR) was 5 min and the “extent of reduction at 1 h (1H-NMR)” value ([24]; PBS, 1 h) was “almost reduced”. The “extent of reduction 1 h after the final 1H-NMR experiment (1D-195Pt-NMR)” value ([24]; PBS, regions −2800 and 400 ppm) was “entirely reduce back to its platinum(II) precursor, 56MESS; also recorded: complete reduction”, the “fold less potent than 56MESS” value (MCF-7 breast [25]) was about 2 fold and the GI50 (MCF-7 breast [25]; MTT assay, 72 h) was 180 ± 77 nM. The GI50 (panel of cell lines) was 75 ± 30 nM.
